Measured values taken from paper PMC8619920, “New Polyesterified Ursane Derivatives from Leaves of Maesa membranacea and Their Cytotoxic Activity” (Molecules, 2021).

Key:
[1] = system: A375 human malignant melanoma cells; assay: Cytotoxicity, LDH assay, A375 cells; type: cell-based; conditions: Homo sapiens, A-375; 24 h treatment, 5–100 μg/mL
Experimental: (§1) Cytotoxic activity was tested on human cancer and normal cells, grouped in three panels, namely: prostate, skin and gastrointestinal. The prostate panel consisted of prostate cancer cell lines Du145 (ATCC HTB-81) and PC3 (ATCC CRL-1435), and prostate epithelial cells PNT-2 (ECACC 95012613). Melanoma cell lines A375 (ATCC CRL-1619) and HTB140 (ATCC Hs 294T) together with skin keratinocytes HaCaT (obtained as a kind gift of prof. Marta Michalik, Department of Cell Biology, Jagiellonian University, Kraków, Poland) were included into the skin panel. The gastrointestinal panel of cells comprised colon cancer cell lines Caco-2 (ATCC HTB-37) and HT29 (ATCC HTB-38). Du145 cells were grown in Modified Eagle’s Medium with low (1.0 g/L) glucose concentration, HT29, PC3 and PNT-2 cells in Dulbecco’s Modified Eagle’s Media: F12 HAM Nutrient Mixture, Caco-2 in Modified Eagle’s Medium with NEAA (no-essential amino acids) while melanoma cells and keratinocytes were maintained in Modified Eagle’s Medium with high (4.5 g/L) glucose concentration. The culture media (all supplied by Sigma-Aldrich Co.; St. Louis, MO, USA) contained antibiotics and 10% fetal bovine serum (FBS). All cultures were maintained at 37 °C, in a humidified, 5% CO2 containing, atmosphere.
(§2) The examined triterpenes were diluted in the culture media from freshly made stock solutions in MeOH (10 mg/mL) to the working concentrations (from 0 to 100 μg/mL).
(§3) Cell viability was determined as it was described previously. Cells suspended in the nutrient medium were transferred into 96-well microtiter plates (density 1.5 × 10^4 per well), and preincubated for 24 h (37 °C, 5% CO2). Then, the culture medium was replaced with the medium containing different concentrations of 1 or 2 (1–100 μg/mL). After 24 h of incubation, viability of the cells was determined using colorimetric lactate dehydrogenase (LDH) assay, in comparison to the controls to which corresponding aliquots of MeOH diluted with culture media were added. Cells grown in the medium without the tested compounds were used as control I (negative) and the positive control (control II) was obtained by incubation of the cells in the medium containing 1% Triton X-100. LDH released from the damaged cells into the cell culture medium was quantified by measuring the absorbance at 490 nm using Synergy II Biotek (BioTek Instruments, Winooski, VT, USA) microplate reader. Cytotoxicities of the examined compounds were calculated as follows: [(absorbance of the tested sample − absorbance of control I)/(absorbance of control II − absorbance of control I)] × 100. Results were means of three independent measurements (± SD). Doxorubicin (Ebewe Pharma GmbH., Unterach, Austria) was used as a reference cytostatic drug. The IC50 values were determined by plotting the percentage viability of the cells versus concentration and the adequate calculations made using AAT Bioquest website program (https://www.aatbio.com/tools/ic50-calculator, accessed on 29 October 2021).

[2] = Cytotoxicity, LDH assay, A375 cells; type: cell-based, human; conditions: human, A375 malignant melanoma cells, 24 h, mean ± SD of three, read-out: Cell viability A375
Experimental: as §1, §2, §3

[3] = Cytotoxicity, LDH assay, HT29 cells; type: cell-based, human; conditions: human, HT29 colon adenocarcinoma cells, 24 h, mean ± SD of three, read-out: Cell viability HT29
Experimental: as §1, §2, §3

[4] = system: HT29 human colon adenocarcinoma cells; assay: Cytotoxicity, LDH assay, HT29 cells; type: cell-based; conditions: Homo sapiens, HT-29; 24 h treatment, 5–100 μg/mL
Experimental: as §1, §2, §3

[5] = Cytotoxicity, LDH assay, Caco-2 cells; type: cell-based, human; conditions: human, Caco-2, 24 h, mean ± SD of three, read-out: Cell viability Caco-2
Experimental: as §1, §2, §3

[6] = system: Caco-2 human colon adenocarcinoma cells; assay: Cytotoxicity, LDH assay, Caco-2 cells; type: cell-based; conditions: Homo sapiens, Caco-2, 24 h, 24 h treatment, 5–100 μg/mL
Experimental: as §1, §2, §3

[7] = Cytotoxicity, LDH assay, PC3 cells; type: cell-based, human; conditions: human, PC3 prostate adenocarcinoma cells, 24 h, mean ± SD of three, read-out: Cell viability PC3
Experimental: as §1, §2, §3

[8] = system: PC3 human prostate adenocarcinoma cells; assay: Cytotoxicity, LDH assay, PC3 cells; type: cell-based
Experimental: as §1, §2, §3

[9] = Cytotoxicity, LDH assay, HTB140 cells; type: cell-based, human; conditions: human, HTB140 melanoma cells, 24 h, mean ± SD of three, read-out: Cell viability HTB140
Experimental: as §1, §2, §3

[10] = system: HTB140 human melanoma cells; assay: Cytotoxicity, LDH assay, HTB140 cells; type: cell-based; conditions: Homo sapiens; 24 h treatment, 5–100 μg/mL
Experimental: as §1, §2, §3

[11] = system: HaCaT human immortalized keratinocytes; assay: Cytotoxicity, LDH assay, HaCaT cells; type: cell-based; conditions: Homo sapiens, HaCaT; 24 h treatment, 5–100 μg/mL
Experimental: as §1, §2, §3

[12] = Cytotoxicity, LDH assay, DU145 cells; type: cell-based, human; conditions: human, DU145 prostate carcinoma cells, 24 h, mean ± SD of three, read-out: Cell viability DU145
Experimental: as §1, §2, §3

[13] = system: DU145 human prostate carcinoma cells; assay: Cytotoxicity, LDH assay, DU145 cells; type: cell-based; conditions: Homo sapiens, DU-145, 24 h, 24 h treatment, 5–100 μg/mL
Experimental: as §1, §2, §3

Compound `CC(=O)OC1CC2(C)C(C(OC(C)=O)CC3(C)C2C(O)C=C2C4C(C)C(C)(O)CC(OC(C)=O)C4(C)CCC23C)C(C)(C)C1O` (stereo not drawn) [Compound 2, 2α,6β,22α-triacetoxy-urs-12-ene-3α,11α,20β-triol] has an IC50 [1] of over 100 µg/mL, a viability at 24 h, 5 μg/mL ([2]; 5 μg/mL) of 97.28 ± 0.33% and a viability at 24 h, 10 μg/mL ([2]; 10 μg/mL) of 95.28 ± 0.9%. It also gave a viability at 24 h, 20 μg/mL ([2]; 20 μg/mL) of 91.1 ± 1.39%, a viability at 24 h, 30 μg/mL ([2]; 30 μg/mL) of 87.3 ± 1.5% and a viability at 24 h, 40 μg/mL ([2]; 40 μg/mL) of 82.6 ± 1.36%. It also gave a viability at 24 h, 50 μg/mL ([2]; 50 μg/mL) of 76.2 ± 1.78%, a viability at 24 h, 100 μg/mL ([2]; 100 μg/mL) of 67.6 ± 1.48% and a viability at 24 h, 5 μg/mL ([3]; 5 μg/mL) of 95.76 ± 0.69%. For the same compound, the viability at 24 h, 10 μg/mL ([3]; 10 μg/mL) was 94.55 ± 0.84%, the viability at 24 h, 20 μg/mL ([3]; 20 μg/mL) was 90.05 ± 0.74% and the viability at 24 h, 30 μg/mL ([3]; 30 μg/mL) was 81.7 ± 1.56%. For the same compound, the viability at 24 h, 40 μg/mL ([3]; 40 μg/mL) was 74.8 ± 1.13%, the viability at 24 h, 50 μg/mL ([3]; 50 μg/mL) was 67.2 ± 1.25% and the viability at 24 h, 100 μg/mL ([3]; 100 μg/mL) was 56.9 ± 1.85%. For the same compound, the IC50 [4] was over 100 µg/mL, the viability at 24 h, 5 μg/mL ([5]; 5 μg/mL) was 94.7 ± 1.42% and the viability at 24 h, 10 μg/mL ([5]; 10 μg/mL) was 88.4 ± 0.92%. It also gave a viability at 24 h, 20 μg/mL ([5]; 20 μg/mL) of 82 ± 1.69%, a viability at 24 h, 30 μg/mL ([5]; 30 μg/mL) of 74.7 ± 1.19% and a viability at 24 h, 40 μg/mL ([5]; 40 μg/mL) of 65.8 ± 1.25%. It also gave a viability at 24 h, 50 μg/mL ([5]; 50 μg/mL) of 61.1 ± 2.37%, a viability at 24 h, 100 μg/mL ([5]; 100 μg/mL) of 49.6 ± 1.49% and an IC50 [6] of over 50 µg/mL. For the same compound, the viability at 24 h, 5 μg/mL ([7]; 5 μg/mL) was 96.6 ± 1.35%, the viability at 24 h, 10 μg/mL ([7]; 10 μg/mL) was 94.1 ± 1.24% and the viability at 24 h, 20 μg/mL ([7]; 20 μg/mL) was 87.9 ± 1.54%. The viability at 24 h, 30 μg/mL ([7]; 30 μg/mL) was 79 ± 1.1%, the viability at 24 h, 40 μg/mL ([7]; 40 μg/mL) was 70.3 ± 1.6% and the viability at 24 h, 50 μg/mL ([7]; 50 μg/mL) was 59 ± 1.81%. For the same compound, the viability at 24 h, 100 μg/mL ([7]; 100 μg/mL) was 47.1 ± 2.64%, the “Cell viability PC3” value ([8]; 100 μg/mL, 24 h, mean ± SD of three) was over 47% and the IC50 ([8]; Homo sapiens, PC-3, 24 h, 24 h treatment, 5–100 μg/mL) was over 50 µg/mL. The viability at 24 h, 5 μg/mL ([9]; 5 μg/mL) was 97.48 ± 0.79%, the viability at 24 h, 20 μg/mL ([9]; 20 μg/mL) was 96.4 ± 0.83% and the viability at 24 h, 30 μg/mL ([9]; 30 μg/mL) was 94.3 ± 1.45%. For the same compound, the viability at 24 h, 40 μg/mL ([9]; 40 μg/mL) was 93.7 ± 1.11%, the viability at 24 h, 50 μg/mL ([9]; 50 μg/mL) was 92 ± 1.64% and the viability at 24 h, 100 μg/mL ([9]; 100 μg/mL) was 89.5 ± 1.4%. It also gave an IC50 [10] of over 100 µg/mL, an IC50 [11] of over 100 µg/mL and a viability at 24 h, 5 μg/mL ([12]; 5 μg/mL) of 97.3 ± 0.27%. For the same compound, the viability at 24 h, 10 μg/mL ([12]; 10 μg/mL) was 94.54 ± 0.58%, the viability at 24 h, 20 μg/mL ([12]; 20 μg/mL) was 90.07 ± 0.71% and the viability at 24 h, 30 μg/mL ([12]; 30 μg/mL) was 83.2 ± 1.24%. For the same compound, the viability at 24 h, 40 μg/mL ([12]; 40 μg/mL) was 77.1 ± 1.63%, the viability at 24 h, 50 μg/mL ([12]; 50 μg/mL) was 68.6 ± 1.78% and the viability at 24 h, 100 μg/mL ([12]; 100 μg/mL) was 57.3 ± 1.9%. For the same compound, the IC50 [13] was over 100 µg/mL.
